“Also recorded” adds a separate entry of the source.
Assays:
[1] = system: C57 mouse CHF model; experiment: In vivo efficacy on chronic heart failure in mice (coronary artery ligation, echocardiography), enalapril control; conditions: for Cardiac output per minute (CO), day 28 vs day 0: p<0.01 or p<0.05 (FIG. 6)
Procedure: C57 mouse coronary artery ligation method was used in this experiment to prepare the mouse CHF model. The differences in echocardiography, hemodynamics and histopathology of the model were observed after administration. Test substance: compound 2. Solvent: 0.3% sodium carboxymethyl cellulose. Dosage: 1 mg/kg, 3 mg/kg, 10 mg/kg, 30 mg/kg and 100 mg/kg. Route of administration: intragastric. Control drug: enalapril 2 mg/kg. Strain: C57 mouse; Age: 7 weeks; Weight: 18-20 g; Gender: Male; Grade: SPF C57 mouse CHF model was established by coronary artery ligation method in this experiment. The differences in echocardiography, hemodynamics and histopathology of the model were observed after administration. 5 dose groups were set for compound 2 in this experiment. Enalapril was selected as the positive control. Once daily for 28 consecutive days. The doses for each group was 1 mg/kg, 3 mg/kg, 10 mg/kg, 30 mg/kg and 100 mg/kg. Positive control group: Enalapril (2 mg/kg) was administered after CHF was established. The mice were anesthetized in a box filled with isoflurane. After the mice were anesthetized, the left 4th intercostal space was opened to expose the left atrial appendage and left ventricle. It can be seen that the left coronary artery runs downward from the middle of the left atrial appendage to the anterior wall of the left ventricle. The coronary artery is sutured at a high position about 1 mm from the lower border of the left atrial appendage. After ligation, the myocardium gradually changes from fleshy red to pale white, indicating myocardial infarction. The model is successfully established, and the chest is closed layer by layer. After the spontaneous breathing of the mice recovered, the mice were caged and reared in a day-night cycle with free access to water and food. After being reared for 30 days, the chronic heart failure model was detected by echocardiography, and the mice with successful chronic heart failure model were selected. Qualified CHF mice screened by echocardiography were randomly grouped. Mice were given compound 2 by intragastric administration once daily for 28 consecutive days. The body weight of mice was measured every week, and echocardiography was performed after 28 days of administration. After the […] anesthetized, 1 mm^3 tissue was taken from the hearts of 3 mice in each group, fixed with electron microscope fixative, and detected by transmission electron microscope to observe the ultrastructure of the heart. All remaining heart tissues were fixed with 10% formaldehyde, and stained with HE for histopathology to observe histopathological changes.

[2] = mice with heart failure, intragastric once daily 28 days, dose not stated

Question: Which melting point does the source give for CC(C)(O)[C@@H]1CC[C@](C)([C@H]2[C@@H](O)C[C@@]3(C)[C@@H]4C[C@H](O)[C@H]5C(C)(C)C(F)(F)CC[C@@]56C[C@@]46CC[C@]23C)O1 [Compound 2, (2aR,3R,4S,5aS,5bS,7S,7aR,11aR,12aS)-9,9-difluoro-3-((2R,5S)-5-(2-hydroxypropan-2-yl)-2-methyltetrahydrofuran-2-yl)-2a,5a,8,8-tetramethyltetradecahydro-1H,12H-cyclopenta[a]cyclopropa[e]phenanthrene-4,7-diol] here?
Answer: 189 to 192 °C

Question: What about the “Short axis shortening rate (FS %), day 28 vs day 0” value ([1]; 10 mg/kg group, p<0.0005 (FIG. 7)) of the same molecule?
Answer: significant increase; also recorded: significant elevated

Question: What about the “EF value, day 28 vs day 0” value ([1]; 10 mg/kg group, p<0.0005, highest increase p<0.0001 (FIG. 5)) of the same molecule?
Answer: significantly increased

Question: What about the “Cardiac output per minute (CO), day 28 vs day 0” value ([1]; 10 mg/kg group) of the same molecule?
Answer: significantly increased

Question: And the “EF value, day 28 vs day 0” value ([1]; 30 mg/kg group, p<0.0005 (FIG. 5))?
Answer: significantly increased

Question: And the “Cardiac output per minute (CO), day 28 vs day 0” value ([1]; 30 mg/kg group)?
Answer: significantly increased

Question: And the “Cardiac output per minute (CO), day 28 vs day 0” value ([1]; 100 mg/kg group)?
Answer: significantly increased

Question: What about the CO per minute [1, 2] of the same molecule?
Answer: significantly increased

Question: And the “ejection fraction (EF)” value [1, 2]?
Answer: significantly increased

Question: What about the “heart rate (HR)” value [1, 2] of the same molecule?
Answer: without increasing

Question: What about the “short-axis shortening rate (FS)” value [1, 2] of the same molecule?
Answer: significantly increased

Reference: patent publication US20220177511A1, “SERIES OF HALOGENATED TETRACYCLIC TRITERPENE DERIVATIVES AND THEIR PREPARATION AND APPLICATION” (SHANGHAI KING-X BIOTECH CO., LTD, priority 2019, published 2022)
